The source of these data is patent publication US7931904B2, “Modulation of MUC1 activity” (Dana Farber Cancer Institute, Inc., priority 2005, dated 2011).

Experiment [1] has as its system ZR-75-1 cells. In words: ChIP with anti-MUC1 C-ter antibody, Bax gene PP. It is filed as cell-based, human. The settings on record: 50 μM, time course. How it is done:
(§1) Chromatin immunoprecipitation (ChIP) and Repeat ChIP (Re-ChIP) assays. ChIP assays were performed as previously described [Shang et al. (2000) Cell 103:843-852] using anti-MUC1 C-ter antibody, anti-p53 antibody (Ab-6; Oncogene Research Products), anti-CBP antibody (C-1; Santa Cruz Biotechnology), anti-HDAC1 antibody (Upstate Biotechnology Inc., Waltham, Mass.), anti-Ac-H4 (Upstate Biotechnology Inc.), anti-TBP antibody (58C9; Santa Cruz Biotechnology), anti-TFIIB antibody (IIB8; Santa Cruz Biotechnology), or anti-TAFII250 antibody (6B3; Santa Cruz Biotechnology). For PCR, 2 μl from a 50 μl DNA extraction were used with 30-38 cycles of amplification. The primers for the p21 gene promoter p53-responsive elements (p53RE1 and p53RE2) have been previously described [Liu et al. (2003) J. Biol. Chem. 277:17557-17565]. The primers for the p21 gene control region (CR) were (forward: 5′-[…]-3′ (SEQ ID NO:14); reverse 5′-[…]-3′ (SEQ ID NO:15)) and the p21 gene PP were (forward: 5′-[…]-3′ (SEQ ID NO:16); reverse: 5′-[…]-3′ (SEQ ID NO:17)). Primers used for the Bax gene promoter p53RE were (forward: 5′-[…]-3′ (SEQ ID NO:18); reverse: 5′-[…]-3′ (SEQ ID NO:19)), Bax gene control region (CR) were (forward: 5′-[…]-3′ (SEQ ID NO:20); reverse: 5′-[…]-3′ (SEQ ID NO:21)) and the Bax gene PP were (forward: 5′-[…]-3′ (SEQ ID NO:22); reverse: 5′-[…]-3′ (SEQ ID NO:23)).

In experiment [2] the test system is HCT116/MUC1 cells. Kind of experiment: ChIP with anti-MUC1 C-ter antibody, Bax gene PP. It is filed as cell-based, human. The following applies: 50 μM, time course. How it is done: as §1
For experiment [3], the system named is HCT116/MUC1 cells. Kind of experiment: Flow cytometry of cell cycle (DNA content). The class given is cell-based, human. The following applies: 48 h. How it is done: (§2) Flow cytometry. Cells were fixed with 80% ice-cold ethanol, incubated in phosphate buffered saline (PBS) containing 30 μg/ml RNase (Roche Applied Science) for 60 min at 37° C. and then stained with propidium iodide (Sigma) for 30 min at room temperature in the dark. DNA content was analyzed by flow cytometry (Coulter EPICS XL-MCL; Miami, Fla.).

Experiment [4] deals with HCT116/vector cells. In words: Flow cytometry of cell cycle (DNA content). The class given is cell-based, human. The settings on record: 48 h. How it is done: as §2
Experiment [5] concerns ZR-75-1 cells. In words: ChIP with anti-MUC1 C-ter antibody, p21 gene p53RE2. It is filed as cell-based, human. The settings on record: 50 μM, kinetic analysis. Here is the method:
as §1

Experiment [6] has as its system HCT116/MUC1 cells. Described as above. It is filed as cell-based, human. The settings on record: 50 μM, kinetic analysis. How it is done: as §1
For experiment [7], the system named is HCT116/MUC1 as compared to HCT116/vector cells. Kind of experiment: Colony formation assay. The following applies: 12-48 h treatment, 8 d culture. It is filed as cell-based, human. How it is done: (§3) Colony formation assays. Aliquots containing 500 cells were plated into individual wells of 6-well culture plates containing 2 ml/well complete medium and incubated for 18-24 h at 37° C. The cells were treated with CDDP or etoposide for 12-48 h, washed and incubated for 8 d. Resulting colonies were stained with crystal violet and counted manually.

For experiment [8], the system named is ZR-75-1 cells. Kind of experiment: Colony formation assay. The following applies: ZR-75-1/vector vs ZR-75-1/MUC1siRNA cells, 12-48 h treatment, 8 d culture. The class given is cell-based, human. How it is done:
as §3

The subject of experiment [9] is ZR-75-1 cells. Kind of experiment: anti-p53 immunoprecipitation and anti-MUC1 C-ter immunoblot. It is filed as cell-based, human. The following applies: 50 or 100 μM, 24 h. Here is the method: (§4) Immunoblotting and immunoprecipitation. Cell lysates were prepared from subconfluent cells as previously described [Wei et al. (2003) J. Biol. Chem. 278:29288-29297]. Immunoblot analysis was performed with anti-p53 antibody (Ab-2, Ab-6; Oncogene Research Products, San Diego, Calif.), anti-MUC1 N-ter antibody [the DF3 monoclonal antibody that binds to the N-terminal segment of human MUC1; Kufe et al. (1984) Hybridoma 3:223-232], anti-MUC1 C-ter antibody (Ab-5 that binds to the C-terminal segment of human MUC1; Neomarkers, Freemont, Calif.), anti-β-actin antibody (Sigma), anti-Myc antibody (Ab-1; Oncogene Research Products), anti-Bax antibody antibody (Santa Cruz Biotechnology; Santa Cruz, Calif.) and anti-p21 (Santa Cruz Biotechnology). Lysates were subjected to immunoprecipitation with anti-p53 or anti-Myc antibody and the immune complexes were analyzed by immunoblotting.
(In general: In western blotting, separated proteins are transferred to a membrane and probed.)

For experiment [10], the system named is HCT116/MUC1 cells. The experiment is described as above. It is filed as cell-based, human. The following applies: 50 or 100 μM, 24 h. Here is the method:
as §4

The test system of experiment [11] is HCT116/vector cells. In words: ChIP with anti-p53 antibody, p21 gene p53RE2. The class given is cell-based, human. The following applies: 50 μM, 8 h. Here is the method:
as §1

Experiment [12] addresses T1, p53 (Homo sapiens, UniProt P04637).
T1 construct: made in house; host or cells: cell-free TNT in vitro transcription/translation reaction (Promega)
In words: GST pull-down of 35S-labeled p53 by GST-MUC1-CD variants. It is filed as binding. The following applies: GST fusion proteins, 90 min at 4° C.
Excerpt: GST pull-down assays. […] After washing, the adsorbed proteins were resolved by SDS-PAGE and analyzed by autoradiography or Coomassie blue staining.

Experiment [13] concerns the target p53 (Homo sapiens, UniProt P04637, R273H). Kind of experiment: Co-immunoprecipitation of Myc-MUC1-CD variants with p53 in transfected U2OS cells. The class given is cell-based. The following applies: transiently transfected U2OS cells. Here is the method:
as §4
Plasmid construction and transfection. […] Transfections were performed in 60 mm tissue culture dishes using Fugene®-6 (Roche Applied Science, Indianapolis, Ind.) or, for the luciferase assays, in 24 well tissue culture plates using the calcium phosphate method (Invitrogen, Carlsbad, Calif.). […]

`N.N.[Cl][Pt][Cl]` [cisplatin]: the “MUC1 occupancy of the Bax gene PP” value in the experiment on ZR-75-1 cells [1] and with HCT116/MUC1 cells [2] was “increased through 4-6 h” in each case. In addition, the cell cycle progression entry with HCT116/MUC1 cells [3] and in the experiment on HCT116/vector cells [4] was “G1 arrest of cell cycle progression” in each case. Moreover, the “MUC1 occupancy of p21 gene p53RE2” value in the experiment on ZR-75-1 cells [5] and in the experiment with HCT116/MUC1 cells [6] was “increases” in each case. Also, the “clonogenic survival of drug-treated cells” value in experiment [7] is “higher”. Further, in the experiment with ZR-75-1 cells [8], the “clonogenic survival following drug treatment” value was “increased by MUC1 expression”. The “binding of endogenous MUC1 and p53” value with ZR-75-1 cells [9] was “Increased binding of endogenous MUC1 and p53”. Moreover, the “association of p53 and MUC1” value in the experiment with HCT116/MUC1 cells [10] was “increase in the association of p53 and MUC1”. Moreover, in the experiment on HCT116/vector cells [11], the “p53 occupancy of the p21 gene p53RE2” value is “increased”.
For `COc1cc([C@@H]2c3cc4c(cc3[C@@H](O[C@@H]3O[C@@H]5CO[C@@H](C)O[C@H]5[C@H](O)[C@H]3O)[C@H]3COC(=O)[C@H]23)OCO4)cc(OC)c1O` [etoposide], the “MUC1 occupancy of the Bax gene PP” value in the experiment on ZR-75-1 cells [1] and in the experiment with HCT116/MUC1 cells [2] was “increased through 4-6 h” each time. In addition, the cell cycle progression entry in the experiment with HCT116/MUC1 cells [3] and in the experiment on HCT116/vector cells [4] was “G1 arrest of cell cycle progression” throughout. The “MUC1 occupancy of p21 gene p53RE2” value in the experiment on ZR-75-1 cells [5] and in the experiment on HCT116/MUC1 cells [6] was “increases” each time. Moreover, the “clonogenic survival of drug-treated cells” value in experiment [7] was “higher”. The “clonogenic survival following drug treatment” value in the experiment on ZR-75-1 cells [8] is recorded as “increased by MUC1 expression”. The “binding of endogenous MUC1 and p53” value with ZR-75-1 cells [9] was “Increased binding of endogenous MUC1 and p53”. Moreover, in the experiment on HCT116/MUC1 cells [10], the “association of p53 and MUC1” value is “increase in the association of p53 and MUC1”. Also, the “p53 occupancy of the p21 gene p53RE2” value in the experiment on HCT116/vector cells [11] is given as “increased”.
Take “MUC1-CD(1-51): deletion variant of MUC1-CD, amino acids 1-51 (SEQ ID NO:5) (CQCRRKNYGQLDIFPARDAYHPMSEYPTYHTHGRYVPPSSTNRSPYEKVSE; listed as Homo sapiens)”: the “binding to 35S-labeled p53 in vitro” value with p53 [12] is reported as “sufficient to form a complex with p53 in vitro”. Further, the “complex formation with p53 in cells” value with p53 [13] was “in vivo binding of p53”.
